In this test the target is Polyphenol oxidase 1 [N65D,S176D,K211T,P277A,P406L] (Agaricus bisporus var. bisporus (strain H97 / ATCC MYA-4626 / FGSC 10389), UniProt Q00024, K211T/N65D/P277A/P406L/S176D). Put plainly: Enzymatic Activity Assay. The following applies: pH 6.8. On the procedure:
The mushroom tyrosinase inhibition activity of hydroxy naphthylchalcone compounds was measured using L-DOPA as substrate. The activity assay used 3 ml of reaction medium containing 0.5 mM L-DOPA in 50 mM Na2HPO4-NaH2PO4 buffer (pH 6.8). […] The substrate reaction progress curve was analyzed to obtain the reaction rate constants. The reaction was carried out at 30 °C and pH 6.8.
For the compound `O=C(/C=C/c1ccc(O)cc1O)c1cc2ccccc2cc1O` [(2E)-3-(2,4-dihydroxyphenyl)-1-(3-hydroxynaphthalen-2-yl) prop-2-en-1-one (2b)], half-maximal inhibition (IC50) was put at 14.4 µM and affinity was put at a Ki of 4.5 µM.

Consider `O=C(/C=C/c1cc(O)ccc1O)c1cc2ccccc2cc1O` [(2E)-3-(2,5-dihydroxyphenyl)-1-(3-hydroxynaphthalen-2-yl) prop-2-en-1-one (1b)], for which half-maximal inhibition (IC50) was put at 20.4 µM and the affinity, expressed as Ki, was 10.8 µM.

Take `O=C(/C=C/c1ccc(O)c([N+](=O)[O-])c1)c1cc2ccccc2cc1O` [(2E)-1-(3-hydroxynaphthalen-2-yl)-3-(4-hydroxy-3-nitrophenyl) prop-2-en-1-one (4b)]: the IC50 was determined as 25.6 µM and affinity was put at a Ki of 11.9 µM.

In turn, `O=C(/C=C/c1cc(O)cc(O)c1)c1cc2ccccc2cc1O` [(2E)-3-(3,5-dihydroxyphenyl)-1-(3-hydroxynaphthalen-2-yl)prop-2-en-1-one (5b)] registered an IC50 of 10.4 µM and a Ki of 3.8 µM.

The compound `O=C(/C=C/c1ccc([N+](=O)[O-])cc1O)c1cc2ccccc2cc1O` [(2E)-1-(3-hydroxynaphthalen-2-yl)-3-(2-hydroxy-4-nitrophenyl) prop-2-en-1-one (3b)] came in with a 50% inhibitory concentration (IC50) of 22.9 µM and a Ki of 11.2 µM.

As usually defined, the IC50 is the concentration needed to halve the response being measured. A lower IC50 goes with greater potency in that assay. As a reminder, the Ki is a dissociation constant, usually derived from enzyme kinetics or from competition with a known ligand. A high value points to a looser hold on the target.

The record behind these values is BindingDB's records for doi:10.1016/j.bioorg.2015.10.003 (University of Technology Sydney, 2015).
